Laboratory results published in publication PMC4666645 (PLoS Pathogens, 2015).
Where a name gives a salt, the structure may show the parent alone.

What was measured:
[1] = test system: C. elegans expressing Hco-26/27; assay: Thrashing assay on transgenic C. elegans expressing Hco-26/27; type: in vivo, Caenorhabditis elegans
Source text: Taking advantage of the absence of acr-26 and acr-27 homologs in the C. elegans genome, we used wild type N2 worms to express these two parasitic nematode AChR subunits. […] For Peq-ACR-26 and Peq-ACR-27, even though the localization of these subunits in Parascaris equorum remains to be investigated in more detail, we also used myo3 as a promoter in order to compare the functional impact of Hco-26/27 and Peq-26/27 on both motility and drug sensitivity in transgenic C. elegans.
Worms were maintained at 20°C on nematode growth medium (NGM) plates and fed on a bacterial lawn (Escherichia coli OP50). Bristol N2 was used as a reference wild-type C. elegans strain. Dose-response assays were performed on gravid adults placed in wells of a 96-well plate containing M9 salt solution (3 g/L KH2PO4, 6 g/L Na2HPO4, 5 g/L NaCl, and 1 mM MgSO4 with BSA at 0.1%) with varying anthelmintic concentrations. After 10 min, worm thrashing was counted for 1 min. A thrash was defined as a change in the direction of bending at the mid-body to return to the initial position. For each drug concentration, 30 worms were tested. Hco-acr-26, Hco-acr-27, Peq-acr-26 and Peq-acr-27 coding sequences were sub-cloned into the pPD96.52 (Addgene) vector containing the muscle promoter Pmyo3. Primer sequences containing the suitable restriction sites are listed in S3 Table. Extrachromosomal transgenic strains of C. elegans were obtained by micro-injecting DNA into the gonads of young adult hermaphrodite worms as described. N2 worms were injected with different mixes containing Pmyo3::Hco-acr-26; Pmyo3::Hco-acr-27; Pmyo3::Peq-acr-26; Pmyo3::Peq-acr-27 alone or in combination (Pmyo3::Hco-acr-26 + Pmyo3::Hco-acr-27 or Pmyo3::Peq-acr-26 + Pmyo3::Peq-acr-27) with a final concentration of 40 ng/μl for each plasmid. The plasmid pPD118.33_Pmyo2::gfp (Addgene) was co-injected at 25 ng/μl as a transformation marker. […] Thrashes produced by each worm during 1 minute were counted after a 10 minutes equilibration period. After drug application, thrashes were counted after 10, 20 and 30 minutes of exposure. […]

[2] = target: Hco-L-AChR-1 (Hco-UNC-38, Hco-UNC-63, Hco-UNC-29.1, Hco-ACR-8) (Haemonchus contortus, UniProt A9XX24+D6MYE9+D6MYF3+D6MYF4); assay: Two-electrode voltage-clamp on Xenopus oocytes expressing Hco-L-AChR-1; type: cell-based; details: for Response to agonist: 100 μM agonist
Sequence of Hco-L-AChR-1 (Hco-UNC-38, Hco-UNC-63, Hco-UNC-29.1, Hco-ACR-8) (D6MYF3 20-512): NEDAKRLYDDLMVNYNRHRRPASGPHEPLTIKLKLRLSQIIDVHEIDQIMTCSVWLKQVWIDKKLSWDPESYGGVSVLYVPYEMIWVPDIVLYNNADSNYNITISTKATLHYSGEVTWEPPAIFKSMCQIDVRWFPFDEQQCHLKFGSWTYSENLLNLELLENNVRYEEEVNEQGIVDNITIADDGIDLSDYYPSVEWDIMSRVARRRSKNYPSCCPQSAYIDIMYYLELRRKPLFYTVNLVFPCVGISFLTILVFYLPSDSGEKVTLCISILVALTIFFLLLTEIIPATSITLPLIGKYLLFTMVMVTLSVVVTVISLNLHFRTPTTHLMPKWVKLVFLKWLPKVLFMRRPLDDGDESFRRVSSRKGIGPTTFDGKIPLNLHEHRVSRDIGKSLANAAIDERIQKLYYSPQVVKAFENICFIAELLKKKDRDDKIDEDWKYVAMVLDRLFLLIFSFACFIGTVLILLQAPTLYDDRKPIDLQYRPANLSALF
Sequence of Hco-L-AChR-1 (Hco-UNC-38, Hco-UNC-63, Hco-UNC-29.1, Hco-ACR-8) (D6MYF4 22-504): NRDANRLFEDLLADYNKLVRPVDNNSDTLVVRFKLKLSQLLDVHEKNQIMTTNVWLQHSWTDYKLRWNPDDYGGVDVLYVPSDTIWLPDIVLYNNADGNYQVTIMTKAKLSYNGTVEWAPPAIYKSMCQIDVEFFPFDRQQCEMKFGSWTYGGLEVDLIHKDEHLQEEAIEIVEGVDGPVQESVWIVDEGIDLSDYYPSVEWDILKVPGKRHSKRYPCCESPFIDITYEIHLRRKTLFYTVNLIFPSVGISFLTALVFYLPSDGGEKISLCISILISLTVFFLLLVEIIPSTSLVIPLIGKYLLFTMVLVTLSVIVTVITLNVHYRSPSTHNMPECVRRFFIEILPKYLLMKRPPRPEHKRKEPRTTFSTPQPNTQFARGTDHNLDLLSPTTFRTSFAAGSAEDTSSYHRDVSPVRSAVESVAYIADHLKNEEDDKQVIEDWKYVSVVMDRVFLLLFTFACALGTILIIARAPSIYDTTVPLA
Sequence of Hco-L-AChR-1 (Hco-UNC-38, Hco-UNC-63, Hco-UNC-29.1, Hco-ACR-8) (D6MYE9 21-498): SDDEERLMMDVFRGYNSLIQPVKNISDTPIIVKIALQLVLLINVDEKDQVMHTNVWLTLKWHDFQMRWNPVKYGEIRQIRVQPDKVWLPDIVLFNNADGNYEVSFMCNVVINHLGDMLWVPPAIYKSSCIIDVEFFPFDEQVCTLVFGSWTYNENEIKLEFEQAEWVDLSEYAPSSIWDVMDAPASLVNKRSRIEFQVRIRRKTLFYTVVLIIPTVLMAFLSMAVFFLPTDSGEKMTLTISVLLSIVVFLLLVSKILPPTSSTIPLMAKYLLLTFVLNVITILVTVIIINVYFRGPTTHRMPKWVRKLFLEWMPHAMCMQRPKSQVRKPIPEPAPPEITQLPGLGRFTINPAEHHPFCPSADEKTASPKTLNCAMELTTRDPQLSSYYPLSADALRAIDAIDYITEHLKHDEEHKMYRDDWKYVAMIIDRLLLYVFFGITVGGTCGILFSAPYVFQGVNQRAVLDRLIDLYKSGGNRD
Sequence of Hco-L-AChR-1 (Hco-UNC-38, Hco-UNC-63, Hco-UNC-29.1, Hco-ACR-8) (A9XX24 19-536): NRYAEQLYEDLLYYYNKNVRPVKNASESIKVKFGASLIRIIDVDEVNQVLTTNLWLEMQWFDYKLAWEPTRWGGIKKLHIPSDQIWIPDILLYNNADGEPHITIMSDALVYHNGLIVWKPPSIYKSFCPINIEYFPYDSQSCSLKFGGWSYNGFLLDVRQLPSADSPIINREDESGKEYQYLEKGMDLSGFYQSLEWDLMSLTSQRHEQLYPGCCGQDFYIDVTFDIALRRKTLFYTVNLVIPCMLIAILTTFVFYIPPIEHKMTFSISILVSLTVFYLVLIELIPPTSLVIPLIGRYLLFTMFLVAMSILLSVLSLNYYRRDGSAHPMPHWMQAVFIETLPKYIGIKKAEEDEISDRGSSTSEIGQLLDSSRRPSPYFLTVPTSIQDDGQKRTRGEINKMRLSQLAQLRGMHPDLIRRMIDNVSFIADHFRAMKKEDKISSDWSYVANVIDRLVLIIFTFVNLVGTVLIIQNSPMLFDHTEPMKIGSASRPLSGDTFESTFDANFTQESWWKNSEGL
Source text: H. contortus and P. equorum acr-26 and acr-27 cDNAs were PCR-amplified using primers containing a restriction site in order to be sub-cloned into the expression vector pTB207 that is suitable for in vitro transcription. Primers are listed in S3 Table. The resulting plasmids were linearized with the NheI restriction enzyme (Fermantas) and used as templates for cRNA synthesis using the T7 mMessage mMachine kit (Ambion). Xenopus laevis ovaries were obtained from the University of Rennes, France (CRB Xenope) and defolliculated using 2 mg/ml collagenase type II (Gibco) in the incubation solution containing: 100 mM NaCl, 2 mM KCl, 1.8 mM CaCl2.2H2O, 1 mM MgCl2.6H2O, 5 mM HEPES, 2.5 mM C3H3NaO3, pH 7.5, supplemented with penicillin 100 U/mL and streptomycin 100 μg/mL). The oocytes were injected in the animal pole with a total volume of 36 nL of cRNA mix containing 50 ng/μL of each cRNA in RNase-free water using the Drummond nanoject II microinjector. Microinjected oocytes were kept at 20°C in incubation medium for 4 days to allow the receptors expression. Two-electrode voltage-clamp recordings were carried out using an Oocyte Clamp OC-725C amplifier (Warner instrument) in oocytes being voltage-clamped at -60mV. All agonist preparations were prepared with recording buffer (100 mM NaCl, 2.5 mM KCl, 1 mM CaCl2.2H2O, 5 mM HEPES, pH 7.3). Currents were recorded and analyzed using the pCLAMP 10.4 package (Molecular Devices).
Supplementary file ppat.1005267.s003.tif: S3 Fig Pharmacological profiles of Hco-L-AChR-1 and Hco-L-AChR-2. […] The bars indicate the time period of the agonist application. Functional expression of Hco-L-AChR-1 requires the co-expression of Hco-UNC-38; Hco-UNC-63; Hco-UNC-29.1 and Hco-ACR-8 AChR subunits with the ancillary proteins Hco-RIC-3.1; Hco-UNC-50 and Hco-UNC-74 whereas Hco-L-AChR-2 requires the co-expression of Hco-UNC-38; Hco-UNC-63 and Hco-UNC-29.1 AChR subunits with the ancillary proteins Hco-RIC-3.1; Hco-UNC-50 and Hco-UNC-74. (C) Scatter plot (mean ± SEM) of normalized currents elicited by 100 μM Mor on Hco-26/27, Hco-L-AChR-1 and Hco-L-AChR-2. Currents have been normalized to and compared with 100 μM ACh elicited currents. Paired Student’s t-test, ***p<0.001. (D) Dose-response relationships of Hco-L-AChR-1 (black circle, n = 7) and Hco-L-AChR-2 (blue squares, n = 9) for Mor. Responses are normalized to 300 μM ACh elicited currents as described in Boulin et al.. […] (TIF) Click here for additional data file.

Row | SMILES | Percentage reduction of thrashes min^-1 ([1]; 50 μM Pyr, 10 minutes of drug exposure) [%] | Concentrations with potential channel-block effect [2] | EC50 [2] [nM] | Response to agonist [2] | Reduction of thrashing motility ([1]; 40 μM Mor, 10 minutes exposure) [%] | Change in sensitivity versus N2 ([1]; 5 μM Lev)
1 | CN1CCCN=C1/C=C/c1cccs1 [Pyr, pyrantel] | 65.4 |  |  |  |  | 
2 | Cc1ccsc1/C=C/C1=NCCCN1C [Mor, morantel] |  | above 30 μM | 410 ± 230 | weak response | 93.3 | 
3 | c1ccc([C@H]2CN3CCSC3=N2)cc1 [Lev, (-)-tetramisole hydrochloride] |  |  |  | very responsive |  | no significant change
